Holding throughout (format): physicochemical
Data set [1] can be described thus: Fluorescence emission of solid drug samples exposed to 80° C. (thermal stability). As to conditions: oven at 80° C., 15 and 41 hours vs unexposed, Renishaw Raman Spectrometer. As for the experimental part:
In the following examples, drug candidate stability is evaluated using non-destructive tests to track any change in property over time while exposed to a condition. Fluorescence, Raman, powder X-ray diffraction, near-IR, mid-IR, UV-Vis absorbance, and colorimetry are used. A change in the peak intensity for these tests is measured for the samples before exposure and during exposure.
Two 20 ml vials containing approximately 10 mg each of Amoxicillin, two 20 ml vials containing approximately 10 mg each of Ampicillin trihydrate and two 20 ml vials containing approximately 10 mg each of Caphalexin hydrate were prepared and placed in an oven at 80° C. One vial of each compound was removed from the oven after 15 hours of exposure, and the other vial of each compound was removed from the oven after 41 hours. Approximately 2 mg samples from each of the vials were placed in discreet regions of a Universal ⋄ Substrate™. Approximately 2 mg of unexposed Amoxicillan, Ampicillin trihydrate and Cephalexil hydrate were also placed in discreet regions of the Universal ⋄ Substrate™. The Raman scattering response and the fluorescence emission response of the samples were measured using a Renishaw Raman Spectrometer.

Data set [2] in a line: FT-Raman of solid drug samples exposed to 80° C. (thermal stability). As to conditions: heated for 216 hours at 80° C. vs unexposed. The source says: The change in FT-Raman signal is used to measure the rate of drug decomposition and the chemical stability of the drug candidate.
Data set [3] in a line: Powder X-ray diffraction of exposed and unexposed drug sample (thermal stability, crystallinity). As to conditions: solid, oven 216 hours at 100 C vs unexposed. As for the experimental part: Approximately 2 mg of Amoxicillin was placed on a Universal ⋄ Substrate™ and exposed in an oven for 216 hours at 100 C. After the sample was removed from the oven, approximately 2 mg of unexposed sample was also on the placed on the Universal ⋄ Substrate™. The X-ray powder diffraction (XRD) patterns for the exposed and unexposed samples were collected on a Bruker D-8 C2 X-ray diffractometer.

Consider `CC1=C(C(=O)O)N2C(=O)[C@@H](NC(=O)[C@H](N)c3ccccc3)[C@H]2SC1` [Cephalexin hydrate], for which, in data set [1], the “amplitude of the fluorescence emission as a function of heating time” value (“amplitude of the fluorescence emission” for short) is reported as “increased significantly”. For the compound `CC1(C)S[C@@H]2[C@H](NC(=O)[C@H](N)c3ccccc3)C(=O)N2[C@H]1C(=O)O` [Ampicillin trihydrate], the “amplitude of the fluorescence emission” value in data set [1] was “increased significantly”. With `CC1(C)S[C@@H]2[C@H](NC(=O)[C@H](N)c3ccc(O)cc3)C(=O)N2[C@H]1C(=O)O` [Amoxicillin], the “amplitude of the fluorescence emission” value in data set [1] is “increased significantly”. Moreover, in data set [2], the “change of FT-Raman spectrum after heating” value is recorded as “changes significantly”. Also, the “crystallinity (powder diffraction intensity) after exposure” value in data set [3] is recorded as “almost completely lost”.

The record behind these values is patent US20040219602A1, “Evaluating effects of exposure conditions on drug samples over time” (Symyx Technologies, Inc., priority 2003, published 2004).
